Laboratory results: patent US20230301885A1, “NOVEL USE” (DSM IP ASSETS B.V., priority 2020, published 2023)

How the values were obtained:
S. epidermidis [1] = assay: Microbiome balance model, S. epidermidis/S. aureus co-culture: S. epidermidis; format: cell-based, Staphylococcus epidermidis; conditions: co-culture with S. aureus
Description: (§1) The term ‘share’ as used herein refers to the share of each (individual) microbe, based on the total number of microbes in the respective group of microbes in % (i.e. the at least two, preferably all dry or sebaceous skin microbes as defined herein, respectively S. epidermidis and ), either before or after inoculation (as indicated). The share is calculated using the colony count of the respective (individual) microbe divided by the sum of the colony counts of all microbes of the respective microbiota * 100%.
(§2) 5 mL of TSB (Tryptic Say Broth) to which no (Ref.1) or 500 µL of 2 wt.-% of 1,3-propanediol (1,3-PDO) in PBS (Phosphate-buffered saline) have been added. Then this solutions have been inoculated by 500 µL of the respective calibrated mixture of the microbes as outlined below. Directly after inoculation and/or after 4 hours of incubation at 37° C., 100 µL have been taken and plated on an Agar gel petri dish. The microbes have then been counted based on the colony specific morphology and/or size.
(§3) All shares have been rounded.

S. aureus [2] = assay: Microbiome balance model, S. epidermidis/S. aureus co-culture: S. aureus; format: cell-based, Staphylococcus aureus; conditions: co-culture with S. epidermidis
Description: as §1, §2, §3

C. acnes = assay: Microbiome balance model, sebaceous skin mixture: C. acnes; format: cell-based, Cutibacterium acnes; conditions: 4 h at 37° C.
Description: (§4) Thus, in particular the term ‘by not unproportionally affecting the growth of anyone thereof’ refers to a balancing of at least two, preferably all dry skin or sebaceous skin microbes as defined herein in the mutual presence thereof, wherein only small changes in the difference in the (individual) shares of the microbes compared to the corresponding shares of the control are observed. Preferably, the small changes in the (individual) share (after 4 h of incubation at 37° C.) is less than ±15%, in particular less than ±10%, most in particular less than ±7.5%, compared to the control. Said change in the share is calculated as: share of the respective microbe within the group of at least two, preferably all microbes of dry or sebaceous skin in the presence of 1,3-PDO [%] minus share of the same microbe within the same group of microbes in the absence of 1,3-PDO [%], both after 4 h of incubation at 37° C. as illustrated in the example.
(§5) The ‘not unproportionally affected growth’ can also be assessed by determining an overall impact value, by • (1) assessing the impact of the ingredient on the individual microbe (i) and assigning an individual impact value x′(i) to said microbe as outlined below: • [formula] • If x(i) is • a) ≤ 0.1 then an integer x′(i) of 1 is assigned (no impact) • b) >0.1 ≤ 0.5then an integer x′(i) of 2 is assigned (slight impact) • c) > 0.5 then an integer x′(i) of 3 is assigned (significant impact), followed by • (2) assessing the overall effect of the ingredient on the respective microbiome by calculating the overall impact value y with formula (II) • [formula] • with n being the total number of microbes in the respective microbiota, wherein a good balancing is characterized by an overall impact value y of less than 2, preferably less than 1.75, most preferably less than 1.7.
as §2, §3

S. epidermidis [3] = assay: Microbiome balance model, sebaceous skin mixture: S. epidermidis; format: cell-based, Staphylococcus epidermidis
Description: as §4, §5, §2, §3

S. hominis = assay: Microbiome balance model, sebaceous skin mixture: S. hominis; format: cell-based, Staphylococcus hominis
Description: as §4, §5, §2, §3

S. capitis = assay: Microbiome balance model, sebaceous skin mixture: S. capitis; format: cell-based, Staphylococcus capitis; conditions: 4 h at 37° C.
Description: as §4, §5, §2, §3

S. mitis [4] = assay: Microbiome balance model, sebaceous skin mixture: S. mitis; format: cell-based, Streptococcus mitis; conditions: 4 h at 37° C.
Description: as §4, §5, §2, §3

C.simulans = assay: Microbiome balance model, sebaceous skin mixture: C. simulans; format: cell-based, Corynebacterium simulans; conditions: 4 h at 37° C.
Description: as §4, §5, §2, §3

M. globosa [5] = assay: Microbiome balance model, sebaceous skin mixture: M. globosa; format: cell-based, Malassezia globosa; conditions: 4 h at 37° C.
Description: as §4, §5, §2, §3

[6] = tested on: microbes of sebaceous skin; assay: Microbiome balance model, sebaceous skin mixture: total of all microbes; format: cell-based; conditions: 4 h at 37° C.
Description: (§6) Preferably, the difference in total number of said at least two, preferably all microbes, compared to the respective total number in the absence of 1,3-propanediol (i.e. the control), after 4 h of incubation at 37° C., is within a range of ±50%, preferably ±40%, more preferably ±15%, most preferably ±10%.
as §5, §2, §3

C. tuberculostearicum = assay: Microbiome balance model, dry skin mixture: C. tuberculostearicum; format: cell-based, Corynebacterium tuberculostearicum; conditions: 4 h at 37° C.
Description: as §4, §5, §2, §3

P. acnes = assay: Microbiome balance model, dry skin mixture: P. acnes; format: cell-based, Cutibacterium acnes; conditions: 4 h at 37° C.
Description: as §4, §5, §2, §3

S. mitis [7] = assay: Microbiome balance model, dry skin mixture: S. mitis; format: cell-based, Streptococcus mitis; conditions: 4 h at 37° C.
Description: as §4, §5, §2, §3

S. oralis = assay: Microbiome balance model, dry skin mixture: S. oralis; format: cell-based, Streptococcus oralis; conditions: 4 h at 37° C.
Description: as §4, §5, §2, §3

M. luteus = assay: Microbiome balance model, dry skin mixture: M. luteus; format: cell-based, Micrococcus luteus; conditions: 4 h at 37° C.
Description: as §4, §5, §2, §3

M. globosa [8] = assay: Microbiome balance model, dry skin mixture: M. globosa; format: cell-based, Malassezia globosa; conditions: 4 h at 37° C.
Description: as §4, §5, §2, §3

microbes of dry skin = assay: Microbiome balance model, dry skin mixture: total of all microbes; format: cell-based; conditions: 4 h at 37° C.
Description: as §6, §5, §2, §3

S. aureus [9] = conditions: known; cited from earlier work
E. coli = conditions: known; cited from earlier work
[10] = after 4 hours of incubation at 37° C.
[11] = directly after inoculation, 500 µL of 2 wt.-% in PBS in 5 mL TSB

Substance: 1,3-Propanediol [1,3-PDO]
- CSE4h counts of colony of S. epidermidis (S. epidermidis [1]; [10]): 170 CFU/ml
- CSE4h share of S. epidermidis (S. epidermidis [1]; [10]): 77%
- CSE0 share of S. epidermidis (S. epidermidis [1]; directly after inoculation): 89%
- CSE0 counts of colony of S. epidermidis (S. epidermidis [1]; [11]): 235 CFU/ml
- share of S. epidermidis, effect in words (S. epidermidis [1]; t = 0 vs t = 4 h): significantly altered
- CSA4h counts of colony of S. aureus (S. aureus [2]; [10]): 50 CFU/ml
- CSA4h share of S. aureus (S. aureus [2]; [10]): 23%
- CSA0 share of S. aureus (S. aureus [2]; directly after inoculation): 11%
- CSA0 counts of colony of S. aureus (S. aureus [2]; [11]): 30 CFU/ml
- C. acnes change in share vs control (C. acnes): +1%^1
- C. acnes counts of colony (C. acnes): 2664 CFU/ml
- C. acnes share (C. acnes): 25%
- C. acnes valuation, impact value x(i)′ (C. acnes): 1^3 (≤ 0.1 then an integer x′(i) of 1 is assigned (no impact))
- growth of S. epidermidis compared to the control, in words (S. epidermidis [3]): increased
- S. epidermidis change in share vs control (S. epidermidis [3]; 4 h at 37° C.): +5%^1
- S. epidermidis counts of colony (S. epidermidis [3]; 4 h at 37° C.): 2255 CFU/ml
- S. epidermidis share (S. epidermidis [3]; 4 h at 37° C.): 21%
- S. epidermidis valuation, impact value x(i)′ (S. epidermidis [3]; 4 h at 37° C.): 2^3 (>0.1 ≤ 0.5then an integer x′(i) of 2 is assigned (slight impact))
- growth of S. hominis compared to the control, in words (S. hominis): increased
- S. hominis counts of colony (S. hominis; 4 h at 37° C.): 373 CFU/ml
- S. hominis share (S. hominis; 4 h at 37° C.): 3%
- S. hominis valuation, impact value x(i)′ (S. hominis; 4 h at 37° C.): 1^3 (≤ 0.1 then an integer x′(i) of 1 is assigned (no impact))
- S. capitis counts of colony (S. capitis): 664 CFU/ml
- S. capitis share (S. capitis): 6%
- S. capitis valuation, impact value x(i)′ (S. capitis): 2^3 (>0.1 ≤ 0.5then an integer x′(i) of 2 is assigned (slight impact))
- S. mitis change in share vs control (S. mitis [4]): -2%^1
- S. mitis counts of colony (S. mitis [4]): 1300 CFU/ml
- S. mitis share (S. mitis [4]): 12%
- S. mitis valuation, impact value x(i)′ (S. mitis [4]): 2^3 (>0.1 ≤ 0.5then an integer x′(i) of 2 is assigned (slight impact))
- C.simulans counts of colony (C.simulans): 627 CFU/ml
- C.simulans share (C.simulans): 6%
- C.simulans valuation, impact value x(i)′ (C.simulans): 1^3 (≤ 0.1 then an integer x′(i) of 1 is assigned (no impact))
- M. globosa change in share vs control (M. globosa [5]): -4%^1
- M. globosa counts of colony (M. globosa [5]): 2900 CFU/ml
- M. globosa share (M. globosa [5]): 27%
- M. globosa valuation, impact value x(i)′ (M. globosa [5]): 2^3 (>0.1 ≤ 0.5then an integer x′(i) of 2 is assigned (slight impact))
- Change of total CFU/ml vs control [6]: -7%^2
- Total counts of colony [6]: 10783 CFU/ml
- Total share [6]: 100%
- overall impact value y [6]: 1.6^4
- C. tuberculostearicum change in share vs control (C. tuberculostearicum): -1%^1
- C. tuberculostearicum counts of colony (C. tuberculostearicum): 909 CFU/ml
- C. tuberculostearicum share (C. tuberculostearicum): 4%
- C. tuberculostearicum valuation, impact value x(i)′ (C. tuberculostearicum): 1^3 (≤ 0.1 then an integer x′(i) of 1 is assigned (no impact))
- P. acnes change in share vs control (P. acnes): -4%^1
- P. acnes counts of colony (P. acnes): 3200 CFU/ml
- P. acnes share (P. acnes): 15%
- P. acnes valuation, impact value x(i)′ (P. acnes): 1^3 (≤ 0.1 then an integer x′(i) of 1 is assigned (no impact))
- S. mitis change in share vs control (S. mitis [7]): +6%^1
- S. mitis counts of colony (S. mitis [7]): 6600 CFU/ml
- S. mitis share (S. mitis [7]): 31%
- S. mitis valuation, impact value x(i)′ (S. mitis [7]): 3^3 (> 0.5 then an integer x′(i) of 3 is assigned (significant impact))
- S. oralis change in share vs control (S. oralis): +5%^1
- S. oralis counts of colony (S. oralis): 5700 CFU/ml
- S. oralis share (S. oralis): 27%
- S. oralis valuation, impact value x(i)′ (S. oralis): 3^3 (> 0.5 then an integer x′(i) of 3 is assigned (significant impact))
- M. luteus change in share vs control (M. luteus): -1%^1
- M. luteus counts of colony (M. luteus): 873 CFU/ml
- M. luteus share (M. luteus): 4%
- M. luteus valuation, impact value x(i)′ (M. luteus): 1^3 (≤ 0.1 then an integer x′(i) of 1 is assigned (no impact))
- M. globosa change in share vs control (M. globosa [8]): -6%^1
- M. globosa counts of colony (M. globosa [8]): 3800 CFU/ml
- M. globosa share (M. globosa [8]): 18%
- M. globosa valuation, impact value x(i)′ (M. globosa [8]): 1^3 (≤ 0.1 then an integer x′(i) of 1 is assigned (no impact))
- Change of total CFU/ml vs control (microbes of dry skin): +38%^2
- Total counts of colony (microbes of dry skin): 21082 CFU/ml
- overall impact value (microbes of dry skin): 1.7^4
- antimicrobial effect on S. aureus (S. aureus [9]): antimicrobial effect
- antimicrobial effect on E. coli (E. coli): antimicrobial effect
